Source: ChEMBL document CHEMBL1131789, “Synthesis and anticonvulsant activity of 3-aryl-5H-2,3-benzodiazephine AMPA antagonists” (1999)
The source made the active and inactive calls. The calls are words filed in the database; no cut-off is given here.

Experiments:
Mus musculus [1] = assay: Ability to abolish the hindlimb tonic extensor components of a maximal electroshock-induced seizure in vivo; type: functional
Mus musculus [2] = assay: Ability to abolish the hindlimb tonic extensor components of a maximal electroshock-induced seizure in vivo; NA means Not active at 10 mg/kg; type: functional, organism-based; parameters: dose 10 mg/kg
Mus musculus [3] = assay: Ability to abolish the hindlimb tonic extensor components of a maximal electroshock-induced seizure in vivo at 10 mg/kg; type: functional
Mus musculus [4] = assay: Ability to abolish the hindlimb tonic extensor components of a maximal electroshock-induced seizure in vivo; NA means Not active; type: functional, organism-based
Mus musculus [5] = assay: Ability to abolish the hindlimb tonic extensor components of a maximal electroshock-induced seizure in vivo at 5 mg/kg; None mice protected; type: functional

SMILES	ED50 (Mus musculus [1])	ED50 (Mus musculus [2])	other results
C[C@@H]1Cc2cc3c(cc2C(c2ccc(N)cc2)=NN1c1nc2ccccc2[nH]1)OCO3	3.2 mg/kg		
C[C@@H]1Cc2cc3c(cc2C(c2ccc(N)cc2)=NN1c1nncc2ccccc12)OCO3	7.8 mg/kg		
C[C@@H]1Cc2cc3c(cc2C(c2ccc(N)cc2)=NN1c1ccccc1)OCO3	1.47 mg/kg		
C[C@@H]1Cc2cc3c(cc2C(c2ccc(I)cc2)=NN1c1ccccn1)OCO3		inactive	
COC(=O)c1ccsc1N1N=C(c2ccc(N)cc2)c2cc3c(cc2C[C@H]1C)OCO3			Protection (Mus musculus [3]): 40%
C[C@@H]1Cc2cc3c(cc2C(c2ccc(N)cc2)=NN1c1ccccn1)OCO3	0.76 mg/kg		
C[C@@H]1Cc2cc3c(cc2C(c2ccc(N)cc2)=NN1c1cccc2ccccc12)OCO3		inactive	
C[C@@H]1Cc2cc3c(cc2C(c2ccc(Cl)cc2)=NN1c1ccccn1)OCO3		inactive	
CC(=O)N1N=C(c2ccc(N)cc2)c2cc3c(cc2C[C@H]1C)OCO3 [TALAMPANEL]	0.48 mg/kg		
C[C@@H]1Cc2cc3c(cc2C(c2ccc(N)cc2)=NN1c1ccc2ccccc2n1)OCO3			ED50 (Mus musculus [4]): inactive
C[C@@H]1Cc2cc3c(cc2C(c2ccc(N)cc2)=NN1c1nccc(C(F)(F)F)n1)OCO3			ED50 (Mus musculus [4]): inactive
C[C@@H]1Cc2cc3c(cc2C(c2ccccc2)=NN1c1ccccn1)OCO3		inactive	
C[C@@H]1Cc2cc3c(cc2C(c2ccc(N)cc2)=NN1c1nc2ccccc2s1)OCO3	5 mg/kg		Protection (Mus musculus [5]): 0%; Protection (Mus musculus [3]): 80%
